Results reported in patent publication US20050130116A1, “Stable expression of polymorphous forms of human cytochrome p450 2d6” (priority 2000, published 2005).
Where two headings read alike, the source gives them in different places.

Experiments:
hCYP2D6*1 and hCYPOR = hCYP2D6*1 and hCYPOR (Homo sapiens, UniProt P10635); conditions: V79MZh2D6*1-hOR homogenate; 200 μM racemic bufuralol
Procedure: 30 μg of Sca I linearized pSV450h2D6*1 DNA and 1 μg of Sca I linearized pRc/RSV-hCYPOR DNA were transfected. […] As in the case of transfection samples T1-T5, the expression vector pSV450h2D6*1 was employed in a 30fold excess over resistance vector pRc/RSV-hCYPOR.

hCYP2D6 1 [1] = conditions: cited from earlier work; for Km: racemic bufuralol
hCYP2D6 1 [2] = target: T1, hCYP2D6 1 (Homo sapiens, UniProt P10635); conditions: cited from earlier work
hCYP2D6 1 [3] = target: T1, hCYP2D6 1; conditions: V79MZh2D6*1 homogenate, NADPH (Bogni, 1999); racemic bufuralol; cited from earlier work
hCYP2D6 [4] = target: T2, hCYP2D6 (Homo sapiens, UniProt P10635); assay: Effect of DMSO on tamoxifen-4-hydroxylase activity; type: biochemical; set-up: expressed in transfected cells; host or cells: V79MZ Chinese hamster fibroblasts (V79MZh2D6*1, DSM ACC2446; also V79MZh2D6*1-H and -S)
hCYP2D6 [5] = target: T2, hCYP2D6
hCYP2D6 9 = hCYP2D6 9 (Homo sapiens, UniProt P10635, DEL281-281); assay: Effect of quinidine on the stability of hCYP2D6 (CO difference spectra); conditions: hCYP2D6 9 (V79MZh2D6*9); quinidine added to the culture medium during cultivation
Procedure: For the preparation of a cell homogenate, the V79MZ cells were cultured in at least three 250 ml tissue culture flasks up to a confluence of 80-100%. […] The medium was discarded, followed by rinsing twice with 5 ml icecold buffer (100 mM potassium phosphate, pH 7.4). The cells were loosened from the dish by means of a rubber scraper into 4 ml of icecold buffer, combined and pelleted by centrifugation for 10 min at 1500×g and 4° C. […] All aliquots were shock frozen in liquid nitrogen to disrupt the cells and afterwards stored at −80° C. until use.
The supernatant was introduced into a 2 ml glas-on-glas homogenizator, reduced by adding several crystals of sodium dithionite (Sigma, Deisenhofen) followed by 15 strokes, and split up between two quartz cuvettes.

human liver microsomes = conditions: cited from earlier work; for contribution to the 4-hydroxylation of tamoxifen: human liver microsomes (Crewe et al., 1997); for tamoxifen-4-hydroxylation activity: 1 μM tamoxifen (Crewe et al., 1997)
V79MZh2D6 cells [6] = assay: Supplementation of culture medium with heme sources (cytotoxic limit, bufuralol hydroxylase activity); conditions: up to the cytotoxic limit
V79MZh2D6 cells [7] = system: V79MZh2D6 cells
[8] = E. coli, purified, CYPOR/NADPH (Gillam et al., 1995)
[9] = Sf9 insect cells cell extract, CYPOR/NADPH (Paine et al., 1996)
[10] = AHH-1 TK+/− (h2D6Val/OR) microsomes, CYPOR/NADPH (Gentest, produkt # M117r)
[11] = AHH-1 TK+/− (h2D6Metv2) microsomes, NADPH (Penman et al., 1993)
[12] = Hep G2 cell lysate, CuOOH (Tyndale et al., 1991a)
[13] = S. cerevisiae W(R) microsomes, Yred/NADPH (Oscarson et al., 1997)
[14] = Sf9 insect cells membranes, CYPOR/NADPH (Evert et al., 1997)
[15] = Sf9 insect cells membranes, CYPOR/NADPH (Patten et al., 1996)

T1 sequence (P10635 whole entry): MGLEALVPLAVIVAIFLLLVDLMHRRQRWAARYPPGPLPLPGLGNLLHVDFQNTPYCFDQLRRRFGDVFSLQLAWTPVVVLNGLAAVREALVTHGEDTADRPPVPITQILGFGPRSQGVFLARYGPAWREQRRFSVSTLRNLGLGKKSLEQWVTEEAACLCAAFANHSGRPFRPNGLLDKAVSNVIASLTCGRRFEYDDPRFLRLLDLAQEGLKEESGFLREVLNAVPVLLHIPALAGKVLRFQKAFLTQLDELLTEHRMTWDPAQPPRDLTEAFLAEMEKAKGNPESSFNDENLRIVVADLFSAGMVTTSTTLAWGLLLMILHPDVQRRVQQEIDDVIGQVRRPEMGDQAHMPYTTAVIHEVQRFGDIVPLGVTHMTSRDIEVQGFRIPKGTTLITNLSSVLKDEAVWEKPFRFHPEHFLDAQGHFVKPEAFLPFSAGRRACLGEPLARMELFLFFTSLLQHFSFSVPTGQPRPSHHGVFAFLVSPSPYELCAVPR
T2 sequence (P10635 whole entry): as above
Chain of hCYP2D6 9 (P10635 with tags, fused parts or gaps DEL281-281): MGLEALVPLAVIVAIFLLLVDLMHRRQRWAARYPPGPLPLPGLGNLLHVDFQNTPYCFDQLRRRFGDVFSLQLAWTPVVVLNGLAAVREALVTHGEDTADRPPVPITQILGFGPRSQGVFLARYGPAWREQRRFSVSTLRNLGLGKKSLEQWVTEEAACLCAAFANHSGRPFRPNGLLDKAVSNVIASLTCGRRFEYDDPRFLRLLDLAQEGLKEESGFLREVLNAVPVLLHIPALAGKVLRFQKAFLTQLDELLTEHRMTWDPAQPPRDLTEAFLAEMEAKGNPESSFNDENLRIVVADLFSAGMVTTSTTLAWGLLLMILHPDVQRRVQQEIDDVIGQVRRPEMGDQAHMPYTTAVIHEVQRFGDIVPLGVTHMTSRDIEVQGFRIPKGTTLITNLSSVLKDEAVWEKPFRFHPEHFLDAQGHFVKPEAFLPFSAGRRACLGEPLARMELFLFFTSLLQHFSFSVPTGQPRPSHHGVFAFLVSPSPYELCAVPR

## CCc1cccc2cc(C(O)CNC(C)(C)C)oc12 (racemic) [racemic bufuralol]
hCYP2D6*1 and hCYPOR
  bufuralol hydroxylase activity: 143 ± 6 pmol/mg/min
hCYP2D6 1 [1]; [8]
  Reaction rate (+/−): 1.2 ± 0.1 min⁻¹
  Km: 39 ± 5 µM
hCYP2D6 1 [1]; [9]
  Reaction rate (+/−): 12.23 min⁻¹
  Vmax (+/−): 370 pmol/mg/min
  Km: 4.7 µM
hCYP2D6 1 [2]; [10]
  Reaction rate (+/−): 10.38 min⁻¹
  Vmax (+/−): 550 pmol/mg/min
hCYP2D6 1 [2]; purified from human liver, CYPOR/NADPH (Distlerath et al., 1985)
  Reaction rate (+/−): 4.4 to 6.4 min⁻¹
hCYP2D6 1 [3]
  Vmax (+/−): 153 ± 26 pmol/mg/min

## CCc1cccc2cc([C@H](O)CNC(C)(C)C)oc12 [(+)-bufuralol]
hCYP2D6 1 [1]; AHH-1 TK+/− (2D6Met/Hol) cell lysate, NADPH (Crespi et al., 1991)
  Vmax (+): 68 ± 0 pmol/mg/min
hCYP2D6 1 [1]; AHH-1 TK+/− (h2D6Metv2) cell lysate, NADPH (Penman et al., 1993)
  Vmax (+): 126 ± 1 pmol/mg/min
hCYP2D6 1 [1]; [11]
  Reaction rate (+): 4.5 min⁻¹
  Vmax (+): 723 ± 35 pmol/mg/min
hCYP2D6 1 [1]; COS-1 cells homogenate, CYPOR/NADPH (Johansson et al., 1994)
  Vmax (+): 3.4 pmol/mg/min
hCYP2D6 1 [1]; COS-1 cells homogenate, NADPH (Kagimoto et al., 1990)
  Vmax (+): 20 to 50 pmol/mg/min
hCYP2D6 1 [1]; [12]
  Reaction rate (+): 2.3 min⁻¹
  Vmax (+): 34.1 pmol/mg/min
hCYP2D6 1 [1]; [13]
  Reaction rate (+): 10 min⁻¹
  Vmax (+): 116 pmol/mg/min
hCYP2D6 1 [1]; [14]
  Reaction rate (+): 26.2 ± 0.4 min⁻¹
  Vmax (+): 17500 ± 2700 pmol/mg/min
hCYP2D6 1 [1]; [15]
  Reaction rate (+): 0.96 min⁻¹
  Vmax (+): 500 to 1000 pmol/mg/min

## C[S+](C)[O-] [DMSO, dimethylsulfoxide]
hCYP2D6 [4]; 10% DMSO
  tamoxifen-4-hydroxylase activity relative to that obtained at […] DMSO: about 20%
hCYP2D6 [4]; up to a DMSO concentration of […]
  effect on tamoxifen-4-hydroxylase activity: only sligthly affected

## CC/C(=C(\c1ccccc1)c1ccc(OCCNC)cc1)c1ccccc1 [Z-N-demethyl-tamoxifen]
hCYP2D6 [5]
  metabolism by V79MZh2D6 homogenate (hCYP2D6-catalyzed hydroxylation): proceeded well

## CC/C(=C(\c1ccccc1)c1ccc(OCCN)cc1)c1ccccc1 [Z-N-didemethyl-tamoxifen]
hCYP2D6 [5]
  metabolism by V79MZh2D6 homogenate (hCYP2D6-catalyzed hydroxylation): negligible

## CC/C(=C(\c1ccccc1)c1ccc(OCC[N+](C)(C)[O-])cc1)c1ccccc1 [Z-Tamoxifen-N-oxide]
hCYP2D6 [5]
  metabolism by V79MZh2D6 homogenate (hCYP2D6-catalyzed hydroxylation): only to a minor extent

## C=C[C@H]1C[N@@]2CC[C@H]1C[C@@H]2[C@@H](O)c1ccnc2ccc(OC)cc12 [quinidine]
hCYP2D6 9
  increase in the amount of cytochrome P450: 4-6 fold

## CC/C(=C(\c1ccccc1)c1ccc(OCCN(C)C)cc1)c1ccccc1 [tamoxifen]
Human liver microsomes; hCYP2C9*1
  contribution to the 4-hydroxylation of tamoxifen: +
Human liver microsomes; hCYP2D6*1
  contribution to the 4-hydroxylation of tamoxifen: +
Human liver microsomes; hCYP2E1
  contribution to the 4-hydroxylation of tamoxifen: −
Human liver microsomes; hCYP3A4
  contribution to the 4-hydroxylation of tamoxifen: +
Human liver microsomes; human liver microsomes of extensive metabolizers
  tamoxifen-4-hydroxylation activity: 1.1-3 pmol/min/mg protein
Human liver microsomes; human liver microsomes of poor metabolizers
  tamoxifen-4-hydroxylation activity: 0.7-0.8 pmol/min/mg protein

## hemin chloride
V79MZh2D6 cells [6]
  bufuralol hydroxylase activity per mg total protein in the cell homogenate after supplementation: no increased bufuralol hydroxylase activity
V79MZh2D6 cells [7]
  cytotoxic limit: 10 µM
